According to patent US20260184687A1, “DIHYDROINDENE DERIVATIVES AS MALT1 INHIBITORS” (C4X Discovery Limited, priority 2022, published 2026):

Columns and labels:
[1] = target: MALT1-GS-Ub (6-His-hMALT-1 residues 339-715 fused to ubiquitin) (Homo sapiens, UniProt Q9UDY8); test: biochemical;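 note: in vitro MALT1 protease assay: enzyme preincubated with compound 30 min at room temperature, then cleavage of fluorogenic Ac-LVSR-AMC substrate (100 µM) followed by fluorescence every 15 min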
Protocol: MALT1 protease activity was assessed in vitro by measuring the cleavage of a fluorogenic tetrapeptide substrate.
A protein (MALT1-GS-Ub) comprising 6-His-hMALT-1 (residues 339-715), fused to ubiquitin with an 8×GGS linker, was expressed in E. coli, and purified using chitin resin to remove contaminants followed by affinity chromatography purification and size-exclusion chromatography, according to standard protocols.
Briefly, MALT1-GS-Ub (300-600 nM) was incubated with substrate (Ac-LVSR-AMC, 100 μM) in reaction buffer comprising 50 mM HEPES (pH7.0), 25 mM KCl, 0.1% (v/v) CHAPS and 1 mM TCEP.
Test compounds dissolved in DMSO were dispensed into assay plates (384-well, black, shallow ProxiPlates). 7 μl enzyme solution was added and incubated at room temperature for 30 minutes to allow compound binding to occur. 2 μl substrate solution was then added and the fluorescence (excitation 360 nm, emission 460 nm) read every 15 minutes using a suitable plate reader. Final assay DMSO concentration was 1%. […] IC50 values were calculated using GraphPad Prism using a 4-parameter non-linear regression curve fit.

[2] = tested on: IL-2 release from stimulated Jurkat cells; test: Human IL-2 Release Phenotypic Assay (Assay 3); format: cell-based; settings: Jurkat cells (clone E6-1), 200 ng/mL PMA + 300 ng/mL ionomycin, IL-2 by ELISA
Procedure, shortened: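 Jurkat E6-1 cells in RPMI1640/10% FBS were seeded at 50 000 cells/well and incubated overnight at 37° C. Half-log compound dilutions (0.5% final DMSO) were added for 30 min, then cells were stimulated with 200 ng/mL PMA + 300 ng/mL ionomycin for 48 h. IC50 came from a 4-parameter non-linear regression fit.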

FL hMALT1 enzyme = target: T1, FL hMALT1 enzyme (Homo sapiens, UniProt Q9UDY8); test: biochemical;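 note: Cell-free protease assay: enzyme preincubated with compound 30 min at room temperature, then cleavage of fluorogenic Ac-LVSR-AMC substrate (100 µM) tracked by fluorescence (ex 360/em 460 nm)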
T1 sequence (Q9UDY8 1-824): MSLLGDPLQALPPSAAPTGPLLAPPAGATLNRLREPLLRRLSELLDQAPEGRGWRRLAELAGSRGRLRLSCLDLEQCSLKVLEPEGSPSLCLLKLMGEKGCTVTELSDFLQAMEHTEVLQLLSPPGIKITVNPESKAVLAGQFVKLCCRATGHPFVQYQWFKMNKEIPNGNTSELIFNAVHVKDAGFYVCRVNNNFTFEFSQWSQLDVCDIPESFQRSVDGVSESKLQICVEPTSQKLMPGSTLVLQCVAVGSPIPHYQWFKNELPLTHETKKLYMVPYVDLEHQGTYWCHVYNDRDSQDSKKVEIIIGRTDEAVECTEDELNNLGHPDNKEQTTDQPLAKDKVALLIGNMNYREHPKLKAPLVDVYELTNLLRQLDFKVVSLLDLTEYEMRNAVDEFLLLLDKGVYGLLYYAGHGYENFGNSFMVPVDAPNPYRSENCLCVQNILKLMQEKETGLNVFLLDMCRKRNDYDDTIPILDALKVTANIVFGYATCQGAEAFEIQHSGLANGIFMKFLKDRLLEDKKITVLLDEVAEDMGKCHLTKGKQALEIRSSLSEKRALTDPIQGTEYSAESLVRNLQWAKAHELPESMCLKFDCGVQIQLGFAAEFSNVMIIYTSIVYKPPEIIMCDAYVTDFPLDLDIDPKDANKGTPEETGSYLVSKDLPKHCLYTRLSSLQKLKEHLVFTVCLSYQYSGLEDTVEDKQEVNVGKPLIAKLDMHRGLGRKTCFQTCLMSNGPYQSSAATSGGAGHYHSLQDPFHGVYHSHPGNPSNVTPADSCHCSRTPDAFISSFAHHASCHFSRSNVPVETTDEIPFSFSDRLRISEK

MALT1-GS-Ub (6-His-hMALT-1 residues 339-715 fused to ubiquitin), sequence (Q9UDY8 with tags, fused parts or gaps limits assumed): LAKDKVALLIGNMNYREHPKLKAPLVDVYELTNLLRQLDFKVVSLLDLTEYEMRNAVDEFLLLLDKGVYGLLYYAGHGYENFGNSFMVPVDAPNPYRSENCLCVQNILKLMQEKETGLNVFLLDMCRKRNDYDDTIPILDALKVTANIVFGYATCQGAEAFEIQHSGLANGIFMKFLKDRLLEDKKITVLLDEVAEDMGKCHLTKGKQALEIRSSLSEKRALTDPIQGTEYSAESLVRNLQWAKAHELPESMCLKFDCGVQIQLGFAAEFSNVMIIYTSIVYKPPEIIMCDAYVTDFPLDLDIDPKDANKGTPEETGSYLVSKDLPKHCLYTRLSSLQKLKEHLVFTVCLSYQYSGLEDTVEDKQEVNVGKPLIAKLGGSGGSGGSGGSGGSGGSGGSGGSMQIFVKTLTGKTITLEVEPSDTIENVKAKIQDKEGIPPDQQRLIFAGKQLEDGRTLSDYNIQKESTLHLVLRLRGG

CC1c2ccccc2CC1Nc1ccc(C(N(C)C(=O)C2CCS(=O)(=O)CC2)C(F)(F)F)cc1 (mixture of isomers) [Example 8, N-Methyl-N—((S)-2,2,2-trifluoro-1-(4-(((1,2-cis)-1-methyl-2,3-dihydro-1H-inden-2-yl)amino)phenyl)ethyl)tetrahydro-2H-thiopyran-4-carboxamide 1,1-dioxide]
IC50 [1]: 200 nM
IC50 ([2]; Homo sapiens, Jurkat, 48 h): 150 nM
IC50 (FL hMALT1 enzyme): 39 nM

CN(C(=O)C1CCS(=O)(=O)CC1)[C@@H](c1ccc(NC2Cc3ccccc3C2(C)C)cc1)C(F)(F)F (single isomer, unassigned) [Example 1]
IC50 [1]: 140 nM
IC50 ([2]; Homo sapiens, Jurkat, 48 h): 430 nM
IC50 (FL hMALT1 enzyme): 7 nM

CN(C(=O)c1cnco1)[C@@H](c1ccc(NC2Cc3ccccc3C2(C)C)cc1)C(F)(F)F (single isomer, unassigned) [Example 5]
IC50 [1]: 140 nM
IC50 ([2]; 48 hours): 2250 nM
IC50 (FL hMALT1 enzyme): 250 nM

CC(=O)N1CC(C(=O)N(C)[C@@H](c2ccc(NC3Cc4ccccc4C3(C)C)cc2)C(F)(F)F)C1 (single isomer, unassigned) [Example 6]
IC50 [1]: 150 nM
IC50 ([2]; 48 hours): 320 nM
IC50 (FL hMALT1 enzyme): 16 nM

CN(C(=O)CCCC(=O)O)[C@@H](c1ccc(NC2Cc3ccccc3C2(C)C)cc1)C(F)(F)F (single isomer, unassigned) [Example 49]
IC50 [1]: 260 nM
IC50 ([2]; Homo sapiens, Jurkat, 48 h): 4690 nM

CN(C(=O)CCCC(=O)O)[C@@H](c1ccc(NC2Cc3ccccc3C2(C)C)cc1)C(F)(F)F (single isomer, unassigned) [Example 50]
IC50 [1]: 120 nM
IC50 ([2]; 48 hours): 2940 nM

CN(C(=O)c1cnon1)[C@@H](c1ccc(NC2Cc3ccccc3C2(C)C)cc1)C(F)(F)F (single isomer, unassigned) [Example 51]
IC50 [1]: 930 nM

CN(C(=O)CCC(=O)O)[C@@H](c1ccc(NC2Cc3ccccc3C2(C)C)cc1)C(F)(F)F (single isomer, unassigned) [Example 52]
IC50 [1]: 260 nM
IC50 ([2]; Homo sapiens, Jurkat, 48 h): 9510 nM

CN(C(=O)CCC(=O)O)[C@@H](c1ccc(NC2Cc3ccccc3C2(C)C)cc1)C(F)(F)F (single isomer, unassigned) [Example 53]
IC50 [1]: 170 nM
IC50 ([2]; 48 hours): 7290 nM

COc1ccc2c(c1)CC(Nc1ccc([C@H](N(C)C(=O)C3CCS(=O)(=O)CC3)C(F)(F)F)cc1)C2 (single isomer, unassigned) [Example 54]
IC50 [1]: 330 nM
IC50 ([2]; Homo sapiens, Jurkat, 48 h): 2110 nM

CNS(=O)(=O)CCC(=O)N(C)[C@@H](c1ccc(NC2Cc3ccccc3C2(C)C)cc1)C(F)(F)F (single isomer, unassigned) [Example 61]
IC50 [1]: 180 nM
IC50 ([2]; 48 hours): 840 nM

CNS(=O)(=O)CCC(=O)N(C)[C@@H](c1ccc(NC2Cc3ccccc3C2(C)C)cc1)C(F)(F)F (single isomer, unassigned) [Example 62]
IC50 [1]: 170 nM
IC50 ([2]; 48 hours): 2120 nM

CN(C(=O)C1CCS(=O)(=O)CC1)[C@@H](c1ccc(NC2Cc3ccccc3C2)cn1)C(F)(F)F (single isomer, unassigned) [Example 71]
IC50 [1]: 330 nM
IC50 ([2]; Homo sapiens, Jurkat, 48 h): 2620 nM

CN(C(=O)C1CNC1)C(c1ccc(NC2Cc3ccccc3C2(C)C)cn1)C(F)(F)F (single isomer, unassigned) [Example 83, N-(1-(5-((1,1-Dimethyl-2,3-dihydro-1H-inden-2-yl)amino)pyridin-2-yl)-2,2,2-trifluoroethyl)-N-methylazetidine-3-carboxamide]
IC50 [1]: 16000 nM
IC50 (FL hMALT1 enzyme): > 3000 nM

CN(C(=O)C1CNC1)C(c1ccc(NC2Cc3ccccc3C2(C)C)cn1)C(F)(F)F (single isomer, unassigned) [Example 86, N-(1-(5-((1,1-Dimethyl-2,3-dihydro-1H-inden-2-yl)amino)pyridin-2-yl)-2,2,2-trifluoroethyl)-N-methylazetidine-3-carboxamide]
IC50 [1]: 11000 nM
IC50 (FL hMALT1 enzyme): > 3000 nM

CN(C(=O)C1CNC1)C(c1ccc(NC2Cc3ccccc3C2(C)C)nc1)C(F)(F)F (single isomer, unassigned) [Example 89, N-(1-(6-((1,1-Dimethyl-2,3-dihydro-1H-inden-2-yl)amino)pyridin-3-yl)-2,2,2-trifluoroethyl)-N-methylazetidine-3-carboxamide]
IC50 [1]: 6860 nM
IC50 (FL hMALT1 enzyme): > 3000 nM

CN1CC(C(=O)N(C)C(c2ccc(NC3Cc4ccccc4C3(C)C)cn2)C(F)(F)F)C1 (single isomer, unassigned) [Example 90, N-(1-(5-((1,1-Dimethyl-2,3-dihydro-1H-inden-2-yl)amino)pyridin-2-yl)-2,2,2-trifluoroethyl)-N,1-dimethylazetidine-3-carboxamide]
IC50 [1]: 81000 nM
IC50 (FL hMALT1 enzyme): > 3000 nM

CN1CC(C(=O)N(C)C(c2ccc(NC3Cc4ccccc4C3(C)C)cn2)C(F)(F)F)C1 (single isomer, unassigned) [Example 91, N-(1-(5-((1,1-Dimethyl-2,3-dihydro-1H-inden-2-yl)amino)pyridin-2-yl)-2,2,2-trifluoroethyl)-N,1-dimethylazetidine-3-carboxamide]
IC50 [1]: 12000 nM
IC50 (FL hMALT1 enzyme): > 3000 nM

CN1CC(C(=O)N(C)C(c2ccc(NC3Cc4ccccc4C3(C)C)nc2)C(F)(F)F)C1 (single isomer, unassigned) [Example 94, N-(1-(6-((1,1-Dimethyl-2,3-dihydro-1H-inden-2-yl)amino)pyridin-3-yl)-2,2,2-trifluoroethyl)-N,1-dimethylazetidine-3-carboxamide]
IC50 [1]: 17000 nM
IC50 (FL hMALT1 enzyme): > 3000 nM

CN(C(=O)c1cc[nH]c(=O)c1)C(c1ccc(NC2Cc3ccccc3C2(C)C)cn1)C(F)(F)F (single isomer, unassigned) [Example 97, N-(1-(5-((1,1-Dimethyl-2,3-dihydro-1H-inden-2-yl)amino)pyridin-2-yl)-2,2,2-trifluoroethyl)-N-methyl-2-oxo-1,2-dihydropyridine-4-carboxamide]
IC50 [1]: 16000 nM
IC50 (FL hMALT1 enzyme): > 3000 nM

CN(C(=O)c1cc[nH]c(=O)c1)C(c1ccc(NC2Cc3ccccc3C2(C)C)cn1)C(F)(F)F (single isomer, unassigned) [Example 99, N-(1-(5-((1,1-Dimethyl-2,3-dihydro-1H-inden-2-yl)amino)pyridin-2-yl)-2,2,2-trifluoroethyl)-N-methyl-2-oxo-1,2-dihydropyridine-4-carboxamide]
IC50 [1]: 26000 nM
IC50 (FL hMALT1 enzyme): > 3000 nM

CN(C(=O)OC1CN(C(=O)OC(C)(C)C)C1)[C@@H](c1ccc(NC2Cc3ccccc3C2(C)C)cc1)C(F)(F)F (stereo partly drawn) [Example 59, tert-Butyl 3-((((1S)-1-(4-((1,1-dimethyl-2,3-dihydro-1H-inden-2-yl)amino)phenyl)-2,2,2-trifluoroethyl)(methyl)carbamoyl)oxy)azetidine-1-carboxylate]
IC50 [1]: 2710 nM

CN(C(=O)[C@H]1CC[C@@H](NS(C)(=O)=O)C1)[C@@H](c1ccc(N[C@H]2Cc3ccccc3C2(C)C)cn1)C(F)(F)F [Example 221, (1S,3R)—N—((S)-1-(5-(((S)-1,1-Dimethyl-2,3-dihydro-1H-inden-2-yl)amino)pyridin-2-yl)-2,2,2-trifluoroethyl)-N-methyl-3-(methylsulfonamido)cyclopentane-1-carboxamide]
IC50 ([2]; Homo sapiens, Jurkat, 48 h): 230 nM
IC50 (FL hMALT1 enzyme): 21 nM

CN(C(=O)C12CC(NS(C)(=O)=O)(C1)C2)[C@@H](c1ccc(N[C@H]2Cc3ccccc3C2(C)C)cn1)C(F)(F)F [Example 233, N—((S)-1-(5-(((S)-1,1-dimethyl-2,3-dihydro-1H-inden-2-yl)amino)pyridin-2-yl)-2,2,2-trifluoroethyl)-N-methyl-3-(methylsulfonamido)bicyclo[1.1.1]pentane-1-carboxamide]
IC50 ([2]; Homo sapiens, Jurkat, 48 h): 170 nM
IC50 (FL hMALT1 enzyme): 20 nM

CN(C(=O)[C@H]1CCC(=O)NC1)[C@@H](c1ccc(N[C@H]2Cc3ccc(Cl)cc3C2)cn1)C(F)(F)F [Example 297, (S)—N—((S)-1-(5-(((S)-5-Chloro-2,3-dihydro-1H-inden-2-yl)amino)pyridin-2-yl)-2,2,2-trifluoroethyl)-N-methyl-6-oxopiperidine-3-carboxamide]
IC50 ([2]; Homo sapiens, Jurkat, 48 h): 360 nM
IC50 (FL hMALT1 enzyme): 170 nM

CN(C(=O)C12CC(NS(C)(=O)=O)(C1)C2)[C@@H](c1ccc(N[C@H]2Cc3ccc(Cl)cc3C2)cn1)C(F)(F)F [Example 299, N—((S)-1-(5-(((S)-5-Chloro-2,3-dihydro-1H-inden-2-yl)amino)pyridin-2-yl)-2,2,2-trifluoroethyl)-N-methyl-3-(methylsulfonamido)bicyclo[1.1.1]pentane-1-carboxamide]
IC50 ([2]; Homo sapiens, Jurkat, 48 h): 430 nM
IC50 (FL hMALT1 enzyme): 94 nM
